Article PMC6407917, “Identification of GSK3186899/DDD853651 as a Preclinical Development Candidate for the Treatment of Visceral Leishmaniasis” (Journal of Medicinal Chemistry, 2018)

How the values were obtained:
Experiment in all cases: biochemical
Design in all cases: species or system HEK293/K-562/placenta mixed human extract; Kinobeads chemoproteomic competition binding, quantified by TMT LC-MS/MS, dose response up to 20 uM
ADCK1 = ADCK1 (Homo sapiens, UniProt Q86TW2)
BUB1 = BUB1 (Homo sapiens, UniProt O43683)
CAMK2B = CAMK2B (Homo sapiens, UniProt Q13554)
CDK9 = CDK9 (Homo sapiens, UniProt P50750)
CSNK2B = CSNK2B (Homo sapiens, UniProt P67870)
DYRK1A = DYRK1A (Homo sapiens, UniProt Q13627)
EIF2AK1 = EIF2AK1 (Homo sapiens, UniProt Q9BQI3)
FGR = FGR (Homo sapiens, UniProt P09769)
GSK3B = GSK3B (Homo sapiens, UniProt P49841)
IRAK3 = IRAK3 (Homo sapiens, UniProt Q9Y616)
ITK = ITK (Homo sapiens, UniProt Q08881)
MAP3K2 = MAP3K2 (Homo sapiens, UniProt Q9Y2U5)
MAP4K1 = MAP4K1 (Homo sapiens, UniProt Q92918)
MAP4K3 = MAP4K3 (Homo sapiens, UniProt Q8IVH8)
MAPK8 = MAPK8 (Homo sapiens, UniProt P45983)
MASTL = MASTL (Homo sapiens, UniProt Q96GX5)
PRKAA2 = PRKAA2 (Homo sapiens, UniProt P54646)
PRKD1 = PRKD1 (Homo sapiens, UniProt Q15139)
PRKD3 = PRKD3 (Homo sapiens, UniProt O94806)
PRKG1 = PRKG1 (Homo sapiens, UniProt Q13976)
SGK3 = SGK3 (Homo sapiens, UniProt Q96BR1)

Measured: IC50

MAP4K1, sequence (Q92918 whole entry): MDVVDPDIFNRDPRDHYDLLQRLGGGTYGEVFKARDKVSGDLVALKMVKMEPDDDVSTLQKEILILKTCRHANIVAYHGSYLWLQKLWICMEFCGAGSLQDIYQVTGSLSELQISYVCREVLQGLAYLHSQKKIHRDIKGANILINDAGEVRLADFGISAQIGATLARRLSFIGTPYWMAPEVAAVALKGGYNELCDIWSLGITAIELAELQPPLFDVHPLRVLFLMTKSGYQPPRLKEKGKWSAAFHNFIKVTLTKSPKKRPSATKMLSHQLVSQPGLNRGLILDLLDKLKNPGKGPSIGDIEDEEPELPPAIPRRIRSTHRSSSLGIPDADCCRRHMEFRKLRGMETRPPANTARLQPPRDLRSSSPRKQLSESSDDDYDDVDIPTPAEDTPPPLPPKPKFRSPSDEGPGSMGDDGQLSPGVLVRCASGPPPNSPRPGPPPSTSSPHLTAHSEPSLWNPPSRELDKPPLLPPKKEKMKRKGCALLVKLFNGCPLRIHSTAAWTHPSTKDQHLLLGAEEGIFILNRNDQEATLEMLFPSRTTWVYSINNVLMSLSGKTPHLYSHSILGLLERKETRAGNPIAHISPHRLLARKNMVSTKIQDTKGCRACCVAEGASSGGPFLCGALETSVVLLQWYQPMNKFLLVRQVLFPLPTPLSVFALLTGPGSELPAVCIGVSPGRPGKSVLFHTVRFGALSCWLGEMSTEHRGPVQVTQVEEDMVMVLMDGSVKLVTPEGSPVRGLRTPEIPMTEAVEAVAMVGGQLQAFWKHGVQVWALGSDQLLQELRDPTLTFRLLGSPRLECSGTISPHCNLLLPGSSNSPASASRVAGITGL
EIF2AK1, sequence (Q9BQI3 whole entry): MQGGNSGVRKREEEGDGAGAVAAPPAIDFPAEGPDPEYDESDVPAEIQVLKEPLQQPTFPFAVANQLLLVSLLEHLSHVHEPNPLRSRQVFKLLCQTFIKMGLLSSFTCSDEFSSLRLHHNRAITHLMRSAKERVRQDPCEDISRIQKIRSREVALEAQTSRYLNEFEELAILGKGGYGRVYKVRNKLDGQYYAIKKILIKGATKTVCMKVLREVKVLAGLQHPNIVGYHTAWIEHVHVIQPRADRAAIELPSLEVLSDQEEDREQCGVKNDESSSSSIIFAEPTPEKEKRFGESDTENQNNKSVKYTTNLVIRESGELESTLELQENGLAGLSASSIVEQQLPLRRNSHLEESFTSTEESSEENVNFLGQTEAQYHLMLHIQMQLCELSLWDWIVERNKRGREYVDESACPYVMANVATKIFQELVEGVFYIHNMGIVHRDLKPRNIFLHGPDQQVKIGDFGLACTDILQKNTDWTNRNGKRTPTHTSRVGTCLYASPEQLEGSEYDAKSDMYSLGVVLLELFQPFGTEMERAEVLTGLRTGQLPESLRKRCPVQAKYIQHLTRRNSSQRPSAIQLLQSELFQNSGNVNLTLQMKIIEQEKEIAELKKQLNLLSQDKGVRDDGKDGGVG
FGR, sequence (P09769 whole entry): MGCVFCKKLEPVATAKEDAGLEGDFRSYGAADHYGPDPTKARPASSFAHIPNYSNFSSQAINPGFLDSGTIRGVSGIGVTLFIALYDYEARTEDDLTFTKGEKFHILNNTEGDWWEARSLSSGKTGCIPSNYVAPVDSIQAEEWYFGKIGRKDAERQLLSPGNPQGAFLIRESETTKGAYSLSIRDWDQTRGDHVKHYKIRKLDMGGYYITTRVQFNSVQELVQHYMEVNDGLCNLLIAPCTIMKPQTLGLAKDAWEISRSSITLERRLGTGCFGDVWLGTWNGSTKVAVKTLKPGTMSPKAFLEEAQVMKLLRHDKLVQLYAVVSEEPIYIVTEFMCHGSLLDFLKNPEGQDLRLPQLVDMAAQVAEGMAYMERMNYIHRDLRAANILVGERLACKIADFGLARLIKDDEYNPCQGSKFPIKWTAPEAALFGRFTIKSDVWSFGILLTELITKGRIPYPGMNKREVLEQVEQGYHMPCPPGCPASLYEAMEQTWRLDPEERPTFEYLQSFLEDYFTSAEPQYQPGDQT
CDK9, sequence (P50750 whole entry): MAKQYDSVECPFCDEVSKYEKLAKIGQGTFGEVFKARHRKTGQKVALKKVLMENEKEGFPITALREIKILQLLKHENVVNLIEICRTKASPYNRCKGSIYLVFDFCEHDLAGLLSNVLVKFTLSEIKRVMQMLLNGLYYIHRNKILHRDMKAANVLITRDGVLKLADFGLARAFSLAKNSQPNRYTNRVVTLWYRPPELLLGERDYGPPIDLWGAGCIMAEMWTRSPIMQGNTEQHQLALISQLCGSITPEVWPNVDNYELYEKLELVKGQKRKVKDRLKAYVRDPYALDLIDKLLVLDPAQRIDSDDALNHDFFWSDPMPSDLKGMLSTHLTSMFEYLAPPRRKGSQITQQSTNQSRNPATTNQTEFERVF
BUB1, sequence (O43683 whole entry): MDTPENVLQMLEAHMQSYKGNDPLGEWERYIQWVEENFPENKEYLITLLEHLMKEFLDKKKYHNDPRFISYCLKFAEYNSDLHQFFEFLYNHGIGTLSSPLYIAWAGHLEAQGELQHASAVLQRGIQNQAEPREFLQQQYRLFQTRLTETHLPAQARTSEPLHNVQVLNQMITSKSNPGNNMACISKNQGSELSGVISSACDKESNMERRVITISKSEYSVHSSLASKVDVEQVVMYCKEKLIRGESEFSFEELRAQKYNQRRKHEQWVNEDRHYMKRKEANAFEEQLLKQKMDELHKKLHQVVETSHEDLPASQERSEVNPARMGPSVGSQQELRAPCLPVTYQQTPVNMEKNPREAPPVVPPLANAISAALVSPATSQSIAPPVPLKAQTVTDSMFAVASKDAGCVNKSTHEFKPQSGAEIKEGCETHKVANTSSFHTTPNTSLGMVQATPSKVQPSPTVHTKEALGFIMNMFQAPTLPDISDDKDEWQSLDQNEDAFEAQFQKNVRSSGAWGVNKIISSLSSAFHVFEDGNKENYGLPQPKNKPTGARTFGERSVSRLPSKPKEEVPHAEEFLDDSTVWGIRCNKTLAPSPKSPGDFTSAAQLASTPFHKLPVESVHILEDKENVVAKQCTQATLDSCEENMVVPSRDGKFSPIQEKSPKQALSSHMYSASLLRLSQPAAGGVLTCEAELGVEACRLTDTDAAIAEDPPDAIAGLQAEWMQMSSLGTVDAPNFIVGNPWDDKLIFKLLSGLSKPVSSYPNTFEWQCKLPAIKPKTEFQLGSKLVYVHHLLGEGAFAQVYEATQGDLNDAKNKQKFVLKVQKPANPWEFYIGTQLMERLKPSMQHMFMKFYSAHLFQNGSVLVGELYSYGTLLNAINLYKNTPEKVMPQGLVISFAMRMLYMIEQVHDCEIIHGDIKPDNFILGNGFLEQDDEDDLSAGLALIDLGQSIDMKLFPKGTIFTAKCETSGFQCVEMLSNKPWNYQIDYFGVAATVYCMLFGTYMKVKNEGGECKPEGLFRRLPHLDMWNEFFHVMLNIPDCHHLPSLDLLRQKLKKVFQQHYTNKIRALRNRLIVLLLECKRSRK
MAPK8, sequence (P45983 whole entry): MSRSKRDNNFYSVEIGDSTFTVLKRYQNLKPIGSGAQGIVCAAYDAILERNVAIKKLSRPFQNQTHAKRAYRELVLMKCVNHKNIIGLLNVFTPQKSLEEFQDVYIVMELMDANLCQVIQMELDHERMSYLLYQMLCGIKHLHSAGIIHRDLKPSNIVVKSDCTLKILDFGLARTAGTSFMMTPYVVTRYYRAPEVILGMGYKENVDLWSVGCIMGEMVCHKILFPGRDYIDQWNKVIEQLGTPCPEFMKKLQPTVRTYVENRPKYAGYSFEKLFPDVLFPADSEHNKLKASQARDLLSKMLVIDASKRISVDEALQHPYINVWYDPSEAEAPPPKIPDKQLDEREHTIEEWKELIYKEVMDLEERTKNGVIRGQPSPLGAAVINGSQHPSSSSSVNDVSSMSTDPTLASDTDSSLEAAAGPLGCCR
SGK3, sequence (Q96BR1 whole entry): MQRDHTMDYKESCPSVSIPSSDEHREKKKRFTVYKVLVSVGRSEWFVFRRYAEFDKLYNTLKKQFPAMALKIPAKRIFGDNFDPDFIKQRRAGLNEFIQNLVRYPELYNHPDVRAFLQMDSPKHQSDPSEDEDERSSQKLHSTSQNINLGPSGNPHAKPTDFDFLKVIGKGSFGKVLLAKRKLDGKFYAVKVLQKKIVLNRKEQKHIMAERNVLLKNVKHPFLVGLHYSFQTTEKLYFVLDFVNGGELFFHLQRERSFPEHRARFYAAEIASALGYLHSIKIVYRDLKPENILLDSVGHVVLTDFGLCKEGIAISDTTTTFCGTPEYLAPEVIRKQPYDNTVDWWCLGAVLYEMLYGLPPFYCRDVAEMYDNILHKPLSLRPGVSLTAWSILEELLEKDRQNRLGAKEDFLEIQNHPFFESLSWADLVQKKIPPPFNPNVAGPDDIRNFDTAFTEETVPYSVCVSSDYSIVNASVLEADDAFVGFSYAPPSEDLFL
CSNK2B, sequence (P67870 whole entry): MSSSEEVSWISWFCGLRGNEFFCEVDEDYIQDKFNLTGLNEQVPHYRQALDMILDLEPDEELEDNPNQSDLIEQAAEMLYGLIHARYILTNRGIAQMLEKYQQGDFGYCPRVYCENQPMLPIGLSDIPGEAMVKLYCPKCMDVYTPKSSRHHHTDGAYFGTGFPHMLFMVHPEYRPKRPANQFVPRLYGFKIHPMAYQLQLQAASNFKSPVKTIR
GSK3B, sequence (P49841 whole entry): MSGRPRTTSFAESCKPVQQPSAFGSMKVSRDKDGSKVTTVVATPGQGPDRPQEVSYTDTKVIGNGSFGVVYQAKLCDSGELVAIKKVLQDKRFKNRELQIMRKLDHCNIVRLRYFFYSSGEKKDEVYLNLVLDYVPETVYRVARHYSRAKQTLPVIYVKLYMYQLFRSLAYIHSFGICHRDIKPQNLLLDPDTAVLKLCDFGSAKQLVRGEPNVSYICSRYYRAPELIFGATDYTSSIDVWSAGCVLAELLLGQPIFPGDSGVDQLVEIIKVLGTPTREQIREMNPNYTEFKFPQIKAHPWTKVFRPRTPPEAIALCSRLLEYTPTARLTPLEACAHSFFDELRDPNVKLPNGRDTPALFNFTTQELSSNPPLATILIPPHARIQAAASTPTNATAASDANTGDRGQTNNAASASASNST

COc1nc(N[C@H]2CC[C@H](NS(=O)(=O)CC(C)C)CC2)nc2[nH]nc(N3CCOC[C@H]3C)c12 [compound 39, N-(trans-4-((4-Methoxy-3-((R)-3-methylmorpholino)-1H-pyrazolo[3,4-d]pyrimidin-6-yl)amino)cyclohexyl)-2-methylpropane-1-sulfonamide]
≥ 20 µM: all assays above
